Reference: patent publication US11512079B2, “Heterocycle substituted pyridine derivative antifungal agents” (Amplyx Pharmaceuticals, Inc., priority 2017, dated 2022)
≈ marks a conversion by molar mass, not a printed value.

Experiments:
C. neoformans H99 [1] = assay: Antifungal susceptibility testing, CLSI broth microdilution (Example 496/497); format: cell-based, Cryptococcus neoformans
Source text: (§1) Isolates tested. C. neoformans strains H99, DUMC 118.00, DUMC 158.03 and C. gattii strains R272, and RSA-MW-3515 were obtained from Duke University. C. albicans 90028, A. fumigatus MYA3626, C. neoformans 14116, C. neoformans 76484 and the pathogenic Cryptococcus reference strains panel (ATCC MP-11) were obtained from American Type Culture Collection (ATCC, Manassas, Va., USA). The MP-11 panel consists of strains representing eight molecular types and three subtypes of C. neoformans and C. gattii.
(§2) Antifungal susceptibility testing. To establish antimicrobial activity, broth microdilution susceptibility testing was performed according to Clinical and Laboratory Standards Institute (CLSI) guidelines M27-A3 for yeasts and M38-A2 for molds. Compound 2 and analogs were first diluted in DMSO to obtain intermediate dilutions. These were further diluted in microtiter plates to obtain a final concentration of 2 to 0.002 μg/mL. 1 μl of DMSO was added to “No drug” control wells. The solutions were mixed on a plate shaker for 10 mins and plates incubated at 35° C. for 40 to 48 h (C. albicans, A. fumigatus) and 72 h (C. neoformans). The minimum concentration that led to 50% reduction in fungal growth as compared to the control (with the aid of a reading mirror) was determined as the minimum inhibitory concentration (MIC) for C. albicans and C. neoformans. The minimum concentration that led to shortening of hyphae as compared to hyphal growth in DMSO control wells was determined as the minimum effective concentration (MEC) for A. fumigatus (as read for echinocandins). The use of the MIC and MEC endpoints for Compound 2 against yeasts and molds, respectively has been described previously.

C. neoformans H99 [2] = assay: Synergy with FLC, standard microtiter checkerboard dilution; format: cell-based, Cryptococcus neoformans; settings: synergy = FICI <0.5, MIC read at 50% inhibition
Protocol: Gwt1 inhibitors are synergistic with FLC. […] Importantly, no antagonism was observed.
as §2

C. neoformans strain H99 [3] = assay: Murine model of cryptococcal meningitis, dosing in the presence of the pan-CYP inhibitor ABT, CD-1 mice; format: in vivo, Cryptococcus neoformans; settings: for reduction of CFU in brain vs untreated control / reduction of CFU in lung vs untreated control: preliminary experiment, 100 mg/kg ABT PO 2 h prior to each dose, n=5
Protocol: Efficacy of exemplary compounds in a murine model of cryptococcal meningitis when dosed in the presence of the pan-CYP inhibitor ABT. […] 100 mg/kg ABT was administered orally to male CD-1 mice 2 h prior to compound administration. Mice were injected with 6.9×10^4 CFU C. neoformans strain H99 per mouse via lateral tail vein at T=0 h. Treatment with each prodrug was initiated about 1 h post-infection by IP administration and continued daily for 7 days with 100 mg/kg ABT administered orally 2 h prior to each dose of compound. The mean log10 CFU/g brain and lung counts in untreated control mice were 7.83±0.09 and 4.67±0.88, respectively (FIG. 1).
[…] A 60 mg/kg dose QD without ABT was also evaluated as a control.
Cryptococcal meningitis model. C. neoformans strain H99 was grown in YPD broth at 30° C. on a shaker (220 rpm) for 24 h, centrifuged (1980 ref) and washed twice in PBS, resuspended in PBS, and quantified by hemacytometric count. CD-1 male mice were infected with ˜5×10^4 CFU per mouse via lateral tail vein injection of 100 μL. Mice were weighed, and treatment was within 1 h after infection. Treatments were administered daily for seven days. Mice were weighed daily and observed for acute and chronic adverse symptoms. Mice were sacrificed on day 8, and brain and left lung were homogenized and cultured for quantitative determination of tissue burden (CFU per gram of tissue). Tissues were homogenized for 25 seconds in […] phosphate buffered saline using two 6.5 mm steel beads and a Mini-Beadbeater 16 (Biospec Products, Inc., Bartlesville, Okla.), and serially diluted in 10-fold steps. Aliquots ([…]) of homogenate were plated and incubated for 3 to 7 days at 37° C. Fungal burden data were log10 transformed and evaluated using Kruskal-Wallis tests with Dunn's Multiple Comparison Test for Post-hoc analysis (Prism 5; GraphPad Software, Inc., San Diego, Calif.). A P value of ≤0.05 is considered statistically significant.

C. neoformans strain H99 [4] = assay: Delayed treatment model of cryptococcal meningitis, CD-1 mice; format: in vivo, Cryptococcus neoformans; settings: treatment from 24 h after infection, 7 days; prodrug 60 mg/kg IP QD with 100 mg/kg ABT PO; AMB 3 mg/kg IP; n=5
Protocol: Infection was initiated on Day 1 and treatment was initiated 24 h later (Day 2) rather than 1 h. Treatments were administered for 7 days (final dose on Day 8) and mice were sacrificed on Day 9 for CFU enumeration.
Delayed treatment model. […] Fungal burden data were log10 transformed and evaluated using Kruskal-Wallis tests with Dunn's Multiple Comparison Test for Post-hoc analysis (Prism 5; GraphPad Software, Inc., San Diego, Calif.). A P value of ≤0.05 is considered statistically significant

[5] = system: C. neoformans US isolates; settings: cited from earlier work
C. gattii WM276 = assay: Antifungal susceptibility testing, CLSI broth microdilution (Example 496/497); format: cell-based, Cryptococcus gattii; settings: 50% reduction in fungal growth
Source text: as §1, §2

C. albicans 90028 = assay: as above; format: cell-based, Candida albicans
Source text: as §1, §2

A. fumigatus MYA3626 = assay: as above; format: cell-based, Aspergillus fumigatus
Source text: as §1, §2

C. neoformans isolates = assay: Activity vs susceptible and FLC non-susceptible/resistant strains, broth microdilution; format: cell-based, Cryptococcus neoformans
Source text: (§3) The activity of Gwt1 inhibitors against susceptible and FLC non-susceptible/resistant strains.
as §1
(§4) Antifungal susceptibility testing. To establish antimicrobial activity, broth microdilution susceptibility testing was performed according to Clinical and Laboratory Standards Institute (CLSI) guidelines M27-A3 for yeasts and M38-A2 for molds. Compound 2 and analogs were first diluted in DMSO to obtain intermediate dilutions. These were further diluted in microtiter plates to obtain a final concentration of 2 to 0.002 μg/mL. 1 μl of DMSO was added to “No drug” control wells. The solutions were mixed on a plate shaker for 10 mins and plates incubated at 35° C. for 40 to 48 h (C. albicans, A. fumigatus) and 72 h (C. neoformans). The minimum concentration that led to 50% reduction in fungal growth as compared to the control (with the aid of a reading mirror) was determined as the minimum inhibitory concentration (MIC) for C. albicans and C. neoformans.

C. gattii isolates = assay: as above; format: cell-based, Cryptococcus gattii
Source text: as §3, §1, §4

[6] = system: strains of C. neoformans and C. gattii; assay: Activity vs Cryptococcus, summary over the strains tested; format: cell-based, Cryptococcus neoformans and Cryptococcus gattii
Source text: as §3, §1, §4

[7] = in the presence of ABT, 20 mg/kg Ex. 172 prodrug, 60 mg/kg Ex. 173 prodrug, 80 mg/kg Compound 1

In the case of `Nc1ncccc1-c1cc(Cc2ccc(OCc3ccccc3)cc2)no1`, the MIC (C. neoformans H99 [1]; Cryptococcus neoformans, H99, 72 h, read-out: MIC C. neoformans H99) is reported as 0.031 µg/mL (≈ 0.0867 µM), the “fold improved anti-C. neoformans H99 activity compared to Compound 2” value (C. neoformans H99 [1]; from MIC values) is reported as 8 fold and the “FICI in combination with FLC” value (C. neoformans H99 [2]) is reported as 0.37.

With `Nc1c(-c2cc(Cc3ccc(Oc4cccc(F)n4)cc3)no2)ccc[n+]1COP(=O)([O-])O` the “reduction in lung burden, without ABT” value (C. neoformans strain H99 [3]; dose response study, 60 mg/kg/day without ABT, non-significant) was 0.74 log10 CFU/g, the “log10 CFU/g brain reductions at doses of similar AUC (approximately 80 μg·h/mL)” value (C. neoformans strain H99 [3]; [7]) was 2.95 log10 CFU/g and the “log10 CFU/g lung reductions at doses of similar AUC (approximately 80 μg·h/mL)” value (C. neoformans strain H99 [3]; [7]) was 3.69 log10 CFU/g. The “reduction of CFU in brain vs untreated control” value (C. neoformans strain H99 [3]; 34 mg/kg QD IP 7 days) was 7.05 log10 CFU/g, the “reduction of CFU in lung vs untreated control” value (C. neoformans strain H99 [3]; 34 mg/kg QD IP 7 days) was “approximately 4.67 log10 CFU/g” and the “reduction of CFU in brain vs untreated control” value (C. neoformans strain H99 [3]; 60 mg/kg QD IP 7 days) was 7.13 log10 CFU/g. The “reduction of CFU in lung vs untreated control” value (C. neoformans strain H99 [3]; 60 mg/kg QD IP 7 days) was “approximately 4.67 log10 CFU/g”, the “reduction of log10 CFU/g brain vs untreated control, delayed treatment” value (C. neoformans strain H99 [4]) was 6.84 log10 CFU/g and the “reduction of log10 CFU/g lung vs untreated control, delayed treatment” value (C. neoformans strain H99 [4]) was 4.59 log10 CFU/g.

For `Nc1nc(=O)[nH]cc1F` [5-flucytosine], the “MIC90 versus C. neoformans, US isolates” value [5] is given as 8 µg/mL (≈ 62 µM).

In the case of `C[C@@H]1[C@H](O)[C@@H](C)/C=C/C=C/C=C/C=C/C=C/C=C/C=C/[C@H](O[C@@H]2O[C@H](C)[C@@H](O)[C@H](N)[C@@H]2O)C[C@@H]2O[C@](O)(C[C@@H](O)C[C@@H](O)[C@H](O)CC[C@@H](O)C[C@@H](O)CC(=O)O[C@H]1C)C[C@H](O)[C@H]2C(=O)O` [AMB, amphotericin B, reference compound], the “MIC C. neoformans H99” value (C. neoformans H99 [1]; 50% reduction in fungal growth, 72 h, 35° C.) is reported as 0.25 µg/mL (≈ 0.271 µM), the “MIC C. gattii WM276” value (C. gattii WM276) is reported as 0.25 µg/mL (≈ 0.271 µM) and the “MIC or MEC C. albicans 90028” value (C. albicans 90028; MIC, 50% reduction in growth, 40 to 48 h) is reported as 1 µg/mL (≈ 1.08 µM). The “MIC or MEC A. fumigatus MYA3626” value (A. fumigatus MYA3626; MEC, shortening of hyphae, 40 to 48 h) was 1 µg/mL (≈ 1.08 µM), the MIC (C. neoformans isolates; C. neoformans 14116) was 0.25 µg/mL (≈ 0.271 µM) and the MIC (C. neoformans isolates; C. neoformans 76484) was 0.25 µg/mL (≈ 0.271 µM). The MIC (C. neoformans isolates; C. neoformans DUMC 118.00 (FLC-resistant)) was 0.25 µg/mL (≈ 0.271 µM), the MIC (C. neoformans isolates; C. neoformans DUMC 158.03 (FLC-resistant)) was 1 µg/mL (≈ 1.08 µM) and the MIC (C. neoformans isolates; C. neoformans H99) was 0.25 µg/mL (≈ 0.271 µM). It also gave an MIC (C. neoformans isolates; C. neoformans MYA-4564) of 0.25 µg/mL (≈ 0.271 µM), an MIC (C. neoformans isolates; C. neoformans MYA-4565) of 0.125 µg/mL (≈ 0.135 µM) and an MIC (C. neoformans isolates; C. neoformans MYA-4566) of 0.25 µg/mL (≈ 0.271 µM). For the same compound, the MIC (C. neoformans isolates; C. neoformans MYA-4567) was 0.25 µg/mL (≈ 0.271 µM), the MIC (C. gattii isolates; C. gattii MYA-4093) was 0.25 µg/mL (≈ 0.271 µM) and the MIC (C. gattii isolates; C. gattii MYA-4094) was 0.25 µg/mL (≈ 0.271 µM). It also gave an MIC (C. gattii isolates; C. gattii MYA-4560) of 0.063 µg/mL (≈ 0.0682 µM), an MIC (C. gattii isolates; C. gattii MYA-4561) of 0.25 µg/mL (≈ 0.271 µM) and an MIC (C. gattii isolates; C. gattii MYA-4562) of 0.25 µg/mL (≈ 0.271 µM). For the same compound, the MIC (C. gattii isolates; C. gattii MYA-4563) was 0.125 µg/mL (≈ 0.135 µM), the MIC (C. gattii isolates; C. gattii MYA-4877) was 0.25 µg/mL (≈ 0.271 µM) and the MIC (C. gattii isolates; C. gattii RSA-MW-3615 (FLC-resistant)) was 0.25 µg/mL (≈ 0.271 µM). The “MIC GEOMEAN” value ([6]; geometric mean over the 18 isolates of C. neoformans and C. gattii) was 0.215 µg/mL (≈ 0.233 µM), the MIC90 ([6]; panel of 18 isolates of C. neoformans and C. gattii) was 0.25 µg/mL (≈ 0.271 µM) and the “reduction of log10 CFU/g lung vs untreated control, delayed treatment” value (C. neoformans strain H99 [4]) was 4.02 log10 CFU/g. The “MIC90 versus C. neoformans, US isolates” value [5] was 2 µg/mL (≈ 2.16 µM).

`CC[C@H](C)C[C@H](C)CCCCCCCCC(=O)N[C@H]1C[C@@H](O)[C@@H](NCCN)NC(=O)[C@@H]2[C@@H](O)CCN2C(=O)[C@H]([C@H](O)CCN)NC(=O)[C@H]([C@H](O)[C@@H](O)c2ccc(O)cc2)NC(=O)[C@@H]2C[C@@H](O)CN2C(=O)[C@H]([C@@H](C)O)NC1=O` [CAS, caspofungin, reference compound] showed an MIC (C. albicans 90028; Candida albicans, 90028, read-out: MIC or MEC C. albicans 90028) of 0.5 µg/mL (≈ 0.457 µM) and an MIC (A. fumigatus MYA3626; Aspergillus fumigatus, MYA3626, read-out: MIC or MEC A. fumigatus MYA3626) of 0.25 µg/mL (≈ 0.229 µM).
